Structures are written as SMILES. Where “and” joins values, the source holds several entries; their conditions need not be identical. Equal values may be shown once. Entries after “also recorded” stand apart in the source; their conditions may differ.

Data set [1] has as its system MATH1-Prune1/TP53-/- cells. Nature of the data set: Real-time cell proliferation assay (cell index, xCELLigence). Type of data set: cell-based, murine. Particulars: impedance every 2 min over 24 h. The protocol:
Primary murine TNBC cells from tumors generated by MMTV-Prune1/Wnt1 mice [Ferrucci et al., 2021] and Primary murine Medulloblastoma Group 3 cells from tumors generated MATH-Prune1/TP53-/- mice were obtained (2 months from tumor onset).
(§1) Cellular proliferation rates were determined with the xCELLigence system (Roche). D425-MED, MATH-Prune1/TP53-/- and MMTV-Prune1/Wnt1 cells (8 × 10^3) were treated with increasing concentrations of LEO-AA7.5(S)T, harvested, and then added to a single well of an xCELLigence E-plate 16. The proliferation rates were determined at 2-min intervals by measuring the impedance changes across the electrodes at the bottoms of the wells. These cell index values were calculated by the xCELLigence RTCA software. with vehicle-treated cells were the negative control. Impedance was measured every 2 min over 24 hours. The IC50 values were calculated through nonlinear regression analysis performed with Graph Pad Prism 9 ([inhibitor] vs. response (three parameters). Data are means ± SD of three independent experiments.

The subject of the next data set is Caspase 3. Kind of data set: Caspase 3 activity assay. The class given is cell-based, murine. Particulars: MATH1-Prune1/TP53-/- cells; Vincristine 0.3 nM and 0.03 nM; LEO-AA7.5(S)T 10 µM; 24 hours. Here is the method: MATH1-Prune1/TP53-/- cells (3×10^4) were plated in 96-well plate and treated with different doses of Vincristine (i.e., 0.3 nM or 0.03 nM) alone or combined to 10 µM LEO-AA7.5(S)T. Vehicle- (0.01% DMSO) treated cells were used as negative controls. Staurosporine-treated cells (1 µM) were used as positive controls of the assays. The assay was performed by using Caspase-3 Activity Assay Kit (#5723, Cell Signaling), by following the manufacture's instruction. Briefly, after 24 hours from the treatment started, cell medium was removed and 30 ul of cell lysis buffer (PI-7018, Cell Signaling) were added. The plate was then incubated for 5 minutes on ice. Later, 25 ul of cell lysate were mixed with 200 ul substrate solution B (#11734S, Cell Signaling) in a black 96 well plate. Fluorescence was detected by using a multimode plate reader (Enspire, 2300, PerkinElmer). The positive control AMC (25 µl, #11735S, Cell Signaling) mixed with 200 ul 1X assay buffer A (#11736S, Cell Signaling) was used as positive control of fluorescence.

For data set [2] the following is noted: 15, 30, and 60 mg/kg intraperitoneally daily for 1 week; Ferrucci et al.; cited from earlier work.
A further data set deals with MATH1-Prune1/ TP53-/-. Kind of data set: Orthotopic implantation of MATH1-Prune1/TP53-/- cells in immunocompetent syngeneic mice, tumor growth. Type of data set: in vivo, FVB WT mice. Particulars: AA7.1 at 30 mg/kg/day or 60 mg/kg/day intraperitoneally. Here is the method:
MATH1-Prune1/ TP53-/- were implanted into the right cerebellar hemisphere of female (n.10) immunocompetent syngeneic mice model (5 weeks old, strain: FVB WT) to establish intracerebellar MATH1-Prune1/ TP53-/- models. Mice were anaesthetised with Ketamine/ Xylazine (87.5 mg/kg, 12.5 mg/kg, respectively). The mice were then placed in a stereotactic frame by hooking their incisors onto the frame hold. A small skin incision (length, 1 mm) and a burr hole (diameter, 0.7 mm) were created using a microsurgical drill (Fine Science Tools, Foster City, CA, USA of MATH1-Prune1/ TP53-/- (1.5 ×10^5) were resuspended in 10 µL PBS and injected slowly through the burr hole into the right cerebellar hemisphere (stereotactic coordinates from Bregma: anteroposterior, 5.5 mm; right lateral, 2.1 mm; dorsoventral 5.0 mm), with a steady force over 30 s, using a 10-AL, 26-gauge Hamilton Gastight model 1701RN syringe needle (SigmaAldrich) that was inserted perpendicular to the cranial surface. The incision was sutured using Safil polyglycolic acid synthetic absorbable suture (6/0). The mice were kept on a warming blanket after the surgery, to help them to maintain their body temperature. Their mobility and respiratory patterns were observed continuously, and once the mice had recovered from the anaesthesia; they were place in a sterile housing cage. The mice were monitored daily for development of potential neurological deficits. 10 days after the implantation of the cells, the mice were imaged, and tumour growth was evaluated by bioluminescence acquisition using an imaging system (IVIS 3D Illumina; Xenogen/ Caliper). For the acquisitions, the mice were anaesthetised by inhalational of isoflurane, and the D-luciferin (122799; PerkinElmer) (15 mg/mL stock) was injected intraperitoneally (100 µL per 10 g body weight). At 5 min from the luciferin injection, the mice were imaged for 3 min. To quantify the bioluminescence, the integrated fluxes of photons (p/s) within each area of interest were determined using the Living Images Software Package 3.2 (Xenogen-Perkin Elmer). […] After 17 days from tumour implantation (i.e., after one weeks of LEO-AA7.5(S)T treatment), the mice were sacrificed, and the organs were collected for immunohistochemistry and immunofluorescence analyses.
Paraffin sections of the tumor specimens (thickness, 3 µm) were deparaffinised and rehydrated by immersing the slides in Xylene Substitute (A5597; Sigma), as three washes for 5 min each, then serially in 100%, 95%, 70%, 50%, and 30% ethanol (two washes for 10 min, for each), and deionised water (two washes, for 5 min each). The washes were then followed by PBS, PBS containing 0.02% Triton-X 100 (215680010; Acros Organics), and PBS (two washes for 5 min, for each). For antigen retrieval, the slides were immersed in boiling 10 mM sodium citrate buffer (pH 6.0) using a microwave oven, and then maintained at sub-boiling temperature for 10 min. The slides were left to cool at room temperature for 30 min. The sections were then washed by immersion in distilled water for 5 min. To block endogenous peroxidase activity, the tissue sections were placed in a solution with 3.0% hydrogen peroxide in methanol for 15 min. Then, to decrease the nonspecific background fluorescence, the tissues were digested by treating them with a solution containing 0.2% trypsin (T2600000; Sigma-Aldrich) and 0.001% CaCl2 for 10 min at 37 °C, in a humidified chamber. The slides were then washed in PBS, PBS containing 0.02% Triton-X 100 (215680010; Acros Organics), and PBS (two washes for 5 min, for each). The tissue sections were blocked with 6% bovine serum albumin (A9418; Sigma), 5% fetal bovine serum (ECS0180L; Euroclone), and 20 mM MgCl2 in PBS containing 0.02% Triton-X 100, for 1 h at room temperature, and incubated overnight with the primary antibodies at 4 °C in a humidified chamber. […]

The subject of data set [3] is D425-MED cells. Particulars: Ferrucci et al., 2018, read-out: IC50 reported for AA7.1 in the same D425-Med cells; cited from earlier work.
For data set [4], the system named is D425-MED cells. Nature of the data set: Real-time cell proliferation assay (cell index, xCELLigence). The class given is cell-based, human. Particulars: combination with Vincristine. The protocol: J774A.1 murine macrophages (referred to as J774 cells; ATCC: #TIB-67), MMTV-Prune1-Wnt1 cells were grown in high-glucose Dulbecco's modified Eagle's medium (DMEM; Euroclone) supplemented with 20% (v/v) FBS, 2 mM L-glutamine, and 1% (v/v) antibiotics (Pen/Strep). D425-MED, D425-MED-Luc and […] cells were grown in high-glucose Dulbecco's modified Eagle's medium (DMEM; Euroclone) and Iscove's Modified Dulbecco's Medium (IMDM; Sigma) at 1:1 (v/v) dilution supplemented with 20% (v/v) FBS, 2 mM L-glutamine, 1% non-essential amino acid solution (M7145; Sigma-Aldrich/Merck), and 1% (v/v) antibiotics (Pen/Strep). The cells were grown at 37 °C in a humidified atmosphere of 95% air, 5% CO2 (v/v).
D425.MED and MMTV-Prune1/Wnt1 cells were plated and treated with increasing concentrations of LEO-AA7.5(S)T for 24 hours. Water-treated cells were used as negative control for the experiments.
as §1

On to `CC[C@]1(O)C[C@H]2CN(CCc3c([nH]c4ccccc34)[C@@](C(=O)OC)(c3cc4c(cc3OC)N(C=O)[C@H]3[C@@](O)(C(=O)OC)[C@H](OC(C)=O)[C@]5(CC)C=CCN6CC[C@]43[C@@H]65)C2)C1` [Vincristine], for which the “half maximal inhibitory concentration (IC50) for the inhibition of cell proliferation index” value in data set [1] is 35 µM and 19,6 µM. Moreover, the “Caspase 3 activation, single agent” value with Caspase 3 is “activation of Caspase 3”.
As a reminder, the IC50 is the midpoint of a concentration-inhibition curve. `COc1ccc(CNc2ccnc(N3CC[C@@H](O)C3)n2)cc1` [AA7.1, (R)-1-(4-((4-methoxybenzyl)amino)pyrimidin-2-yl)pyrrolidin-3-ol, reference compound]: in data set [2], the “acute toxicity (hematological parameters, hepatotoxicity, nephrotoxicity)” value is recorded as “no immediate acute toxicity”. The “MB progression / tumour growth in cerebellum (bioluminescence)” value with MATH1-Prune1/ TP53-/- was “inhibit MB progression; also recorded: impairment of tumour growth”. Also, in the data set on D425-MED cells [3], the IC50 was 130 ± 52.1 µM.
Turning to `COc1ccc(CNc2ncnc(N3CCCC(CO)C3)n2)cc1` (stereo not drawn) [compound (I)], the “dose of the chemotherapeutics diminished by synergistic action with Vincristine” value in the data set on D425-MED cells [4] is on record as “more than 100 fold”.

Values taken from patent EP4361137A1, “PRUNE1 INHIBITORS AND THERAPEUTIC USE THEREOF” (CEINGE Biotecnologie Avanzate Franco Salvatore s.c. a r.l., priority 2022, dated 2024).
